Counter-ions that a name gives are not always drawn. Like-named read-outs stand apart in the source and are kept apart here.
Tests used:
CMKLR1 = molecular target: T1, CMKLR1 (Homo sapiens, UniProt Q99788); test: β-arrestin recruitment assay (chemerin-dependent β-arrestin2 signaling); type: cell-based; details: for IC50: CMKLR1-CHO-β-Arrestin cells, 20 nM chemerin, read-out: β-arrestin IC50 mean ± SEM (n)
T1 construct: host or cells: CHO-K1 (PathHunter CMKLR1 β-Arrestin cells)
T1 sequence (Q99788 1-373): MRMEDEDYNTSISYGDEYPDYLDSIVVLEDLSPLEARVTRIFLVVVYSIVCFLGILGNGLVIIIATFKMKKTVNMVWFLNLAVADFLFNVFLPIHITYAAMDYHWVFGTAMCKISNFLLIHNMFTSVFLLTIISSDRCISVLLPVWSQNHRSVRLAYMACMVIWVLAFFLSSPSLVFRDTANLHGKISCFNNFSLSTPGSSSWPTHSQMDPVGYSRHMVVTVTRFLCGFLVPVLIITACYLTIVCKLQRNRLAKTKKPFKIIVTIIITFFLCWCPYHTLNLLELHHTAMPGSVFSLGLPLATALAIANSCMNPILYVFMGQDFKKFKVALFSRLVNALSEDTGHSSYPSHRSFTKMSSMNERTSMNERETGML
Description: DiscoverX PathHunter® CHO-K1 CMKLR1 β-Arrestin Cells were grown in RPMI lacking phenol red (Gibco, Life Technologies), supplemented with L-glutamine, penicillin-streptomycin, sodium pyruvate, non-essential amino acid, BCS, hygromycin, and G418-sulfate. CMKLR1-CHO-β-Arrestin cells were seeded in 96 well plates at 1 × 10^5 cell/ml- 100 ul/well and incubated overnight at 37 °C, 5% CO2. […] (α-NETA and test compounds were reconstituted in DMSO; final DMSO concentration in each well was 0.1%). After 10 min, 5 ul of recombinant human chemerin (R&D Systems) at a final concentration of 20 nM was added to each well. Plates were incubated for 90 min at 37 °C, 5% CO2. Media was then removed and 50 ul of chemiluminescent substrate (Tropix Gal-Screen, Applied Biosciences) was added. The plate was incubated for 1 hr at RT and luminescence was detected using the SpectraMax M5 plate reader (Molecular Devices). For each independent trial (single replicate dose curves), data was normalized to the maximum signal per compound tested and an IC50 value was generated using GraphPad Prism software. The average IC50 value for n independent trials (as specified in the table) is reported.

C57BL/6 mice with EAE = test: Experimental autoimmune encephalomyelitis (EAE), MOG35–55/CFA immunization; type: in vivo, mouse; details: for Day of onset (Mean ± SEM) / Maximum Score (Mean ± SEM) / AUC (Mean ± SEM) of clinical score: Table 4, 10 mg/kg daily to D21, n = 8; for Maximum Score (Mean ± SEM): clinical score 0-5; for AUC (Mean ± SEM) of clinical score: mean clinical score x day
Description: C57BL/6 mice were purchased from The Jackson Laboratory. […] Animal experiments were conducted in accordance with approved Veterans Affairs, National Institutes of Health, and Institutional Animal Care and Use Committee guidelines.
CFA consisted of 5 mg/ml mTB (Mycobacterium-tuberculosis H37 Ra, BD Difco) in IFA (Incomplete Freund’s Adjuvant, Sigma). MOG35–55 was reconstituted at 2 mg/ml in PBS. Mice also received 200 ng pertussis toxin (List Biological Laboratories, Inc) by i.p. injection at the time of immunization and two days later. […] For a direct comparison to α-NETA, the DMF and compound doses were also 10 mg/kg in 10% captisol. Mice were monitored daily for clinical disease and scored (0 = normal/healthy, 1 = limp tail, 2 = hindlimb weakness, 3 = hindlimb paralysis, 4 = hindlimb and forelimb paralysis, 5 = moribund/dead).

(hu)CMKLR1 L1.2 cells = test: Chemotaxis assay toward huChemerin; type: cell-based, human; details: for IC50: (hu)CMKLR1 L1.2 cells migrating toward huChemerin, 2 h, read-out: Chemotaxis IC50 mean ± SEM (n)
Description: (hu)CMKLR1 transfectants (generated in L1.2 pre-B cell lymphoma cells) were grown in RPMI 1640 (Corning) supplemented with L-glutamine, penicillin-streptomycin, and 10% BCS and G418-sulfate (KSE Scientific). DiscoverX PathHunter® CHO-K1 CMKLR1 β-Arrestin Cells were grown in RPMI lacking phenol red (Gibco, Life Technologies), supplemented with L-glutamine, penicillin-streptomycin, sodium pyruvate, non-essential amino acid, BCS, hygromycin, and G418-sulfate.
(hu)CMKLR1 L1.2 cells at 1 × 10^6 cell/ml were treated with 5 mM sodium butyrate (Sigma) overnight to induce hCMKLR1 expression. The next day, cells were washed in migration media (RPMI + 0.5%BSA) and resuspended at 1.5–3 × 10^6 cell/ml. Cells were pre-incubated at RT for 10 min with various concentrations of α-NETA or test compounds (α-NETA and test compounds were reconstituted in DMSO; final DMSO concentration in each well was 0.1%). 100 ul of cells were added to the upper chamber of a 24-well transwell plate (5 um pore size, Costar). Cells were allowed to migrate toward huChemerin ([…] in migration media, bottom chamber) for 2 h, 37 °C, 5% CO2. The number of migrated cells was quantified by flow cytometry (BD LSR2), and live cells were distinguished based on FSC × SSC properties. The background for this assay was typically low with 0 cells migrating to the buffer alone. For each independent trial, data was normalized to the maximum migration per compound tested and an IC50 value was generated using GraphPad Prism software. The average IC50 value for n independent trials (as specified in the table) is reported.

[1] = Table 3 quaternary ammonium salts

Row | Structure (SMILES) | IC50 (CMKLR1; Table 2 tertiary amines) [µM] | IC50 ((hu)CMKLR1 L1.2 cells) [µM] | IC50 (CMKLR1; [1]) [µM] | further results
1 | COc1ccc2ccccc2c1C(=O)CCN(C)C [Compound 6] | 6.2 ± 2.5 |  |  | Day of onset (Mean ± SEM) (C57BL/6 mice with EAE): 14.5 ± 0.4; Maximum Score (Mean ± SEM) (C57BL/6 mice with EAE): 2.4 ± 0.2; AUC (Mean ± SEM) of clinical score (C57BL/6 mice with EAE): 25.2 ± 4.0
2 | CN(C)CCC(=O)c1ccc2ccccc2c1 [Compound 7] | 18.5 |  |  | 
3 | CCN(CC)CCC(=O)c1ccc2ccccc2c1 [Compound 8] | 71.3 |  |  | 
4 | CCN(C)CCC(=O)c1ccc2ccccc2c1 [Compound 9] | 39.6 |  |  | 
5 | CCCCN(C)CCC(=O)c1ccc2ccccc2c1 [Compound 10] | 44.5 |  |  | 
6 | COc1ccc2cc(C(=O)CCN(C)C)ccc2c1 [Compound 11] | > 100 |  |  | 
7 | COc1ccccc1C(=O)CCN(C)C [Compound 16] | > 100 |  |  | 
8 | COc1ccc(C(=O)CCN(C)C)cc1 [Compound 17] | > 100 |  |  | 
9 | COc1cccc(C(=O)CCN(C)C)c1 [Compound 18] | 64 |  |  | 
10 | COc1cccc(OC)c1C(=O)CCN(C)C [Compound 19] | 10.3 ± 4.5 |  |  | 
11 | CN(C)CCC(=O)C1CCCCC1 [Compound 20] | > 100 |  |  | activity in β-arrestin2 assay (in words) (CMKLR1): complete loss of activity
12 | C[N+](C)(C)CCC(=O)c1ccc2ccccc2c1 [Compound 23] |  | 24.1 | 2.5 ± 0.9 | 
13 | C[N+](C)(C)CCC(=O)c1ccccc1.[I-] [Compound 24] |  | > 100 | 5.6 ± 0.7 | activity in chemotaxis assay (in words) ((hu)CMKLR1 L1.2 cells): did not show any activity
14 | C[N+](C)(C)CCC(=O)C1CCCCC1 [Compound 25] |  | > 100 | 11.9 | 
15 | COc1ccccc1C(=O)CC[N+](C)(C)C.[I-] [Compound 26] |  | 7.2 | 2.9 ± 1.6 | activity in chemotaxis assay (in words) ((hu)CMKLR1 L1.2 cells): highly active; activity in β-arrestin2 assay (in words) (CMKLR1): highly active
16 | COc1ccc(C(=O)CC[N+](C)(C)C)cc1.[I-] [Compound 27] |  | 4.5 ± 1.5 | 1.9 ± 0.2 | activity in chemotaxis assay (in words) ((hu)CMKLR1 L1.2 cells): highly active; activity in β-arrestin2 assay (in words) (CMKLR1): highly active; Day of onset (Mean ± SEM) (C57BL/6 mice with EAE): 16.0 ± 0.9; Maximum Score (Mean ± SEM) (C57BL/6 mice with EAE): 2.1 ± 0.1^¶; AUC (Mean ± SEM) of clinical score (C57BL/6 mice with EAE): 24.3 ± 4.2
17 | COc1cccc(C(=O)CC[N+](C)(C)C)c1 [Compound 28] |  | 14.6 ± 4.8 | 3.8 ± 1.7 | 
18 | COc1ccc(C(=O)CC[N+](C)(C)C)c(OC)c1 [Compound 29] |  | 17.4 ± 2.2 | 4.8 ± 1.6 | 
19 | COc1cccc(OC)c1C(=O)CC[N+](C)(C)C.[I-] [Compound 30] |  | 6.8 | 2.1 ± 1.1 | activity in chemotaxis assay (in words) ((hu)CMKLR1 L1.2 cells): highly active; activity in β-arrestin2 assay (in words) (CMKLR1): highly active
20 | COc1cc(OC)cc(C(=O)CC[N+](C)(C)C)c1 [Compound 31] |  | > 100 | 6 ± 2.2 | 
21 | COc1ccc2cc(C(=O)CC[N+](C)(C)C)ccc2c1 [Compound 32] |  | 20 ± 6.2 | 1.5 ± 0.3 | 
22 | COc1ccc2ccccc2c1C(=O)CC[N+](C)(C)C [Compound 33] |  | 10.7 | 0.6 ± 0.3 | 
23 | C[N+](C)(C)CCS(=O)(=O)c1ccccc1 [Compound 35] |  |  |  | activity in β-arrestin2 assay (in words) (CMKLR1): inactive
24 | COC(=O)/C=C/C(=O)OC [Tecfidera, dimethyl fumarate, reference compound] |  |  |  | day of EAE onset (mean ± SEM) (C57BL/6 mice with EAE; Fig. 1 study, 10 mg/kg daily in 10% captisol, s.c., d29 onset assumed for 2 α-NETA mice): 14 ± 2 days

Reference: publication PMC6509344, “Novel CMKLR1 Inhibitors for Application in Demyelinating Disease” (Scientific Reports, 2019)
